From the supplement of paper PMC10307832

Assays:
Experiment in all cases: relative viability (nuclei count vs DMSO), 5 days (fraction); higher = more cells survive
NCI-H1623 = system: NCI-H1623
How it was run: (§1)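 After 5 days of treatment, lung cancer cells in 1536-well plates were fixed and stained in a single step (final 0.05% Triton X-100, 1% formaldehyde, 1 ug/ml Hoechst) and their nuclei counted on 4× images. Treatment had been applied by pin tool the day after seeding as one drug alone or as a fixed anchor-drug dose with five library-drug doses (not always all listed) in √10 steps. Relative viability is the nuclei count of treated wells divided by that of vehicle wells, and values are medians of duplicate plates.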

NCI-H1648 = system: NCI-H1648
How it was run: as §1

NCI-H2342 = system: NCI-H2342
How it was run: as §1

NCI-H522 = system: NCI-H522
How it was run: as §1

SW 900 = system: SW 900
How it was run: as §1

A549 = system: A549
How it was run: as §1

NCI-H1563 = system: NCI-H1563
How it was run: as §1

Cc1cnc(-c2cnc(NCCNc3ccc(C#N)cn3)nc2-c2ccc(Cl)cc2Cl)[nH]1 + Cc1cc(Nc2cc(N3CCN(C)CC3)nc(Sc3ccc(NC(=O)C4CC4)cc3)n2)n[nH]1 [Tozasertib] (partner 0.1 µM)
relative viability (NCI-H1623; first compound 0.08 µM): 0.477 | relative viability (NCI-H1623; first compound 0.253 µM): 0.426 | relative viability (NCI-H1623; first compound 0.8 µM): 0.414 | relative viability (NCI-H1623; first compound 2.53 µM): 0.417 | relative viability (NCI-H1648; first compound 0.08 µM): 0.487 | relative viability (NCI-H1648; first compound 0.253 µM): 0.502 | relative viability (NCI-H1648; first compound 0.8 µM): 0.465 | relative viability (NCI-H1648; first compound 2.53 µM): 0.52 | relative viability (NCI-H2342; first compound 0.08 µM): 0.519 | relative viability (NCI-H2342; first compound 0.253 µM): 0.513 | relative viability (NCI-H2342; first compound 0.8 µM): 0.507 | relative viability (NCI-H2342; first compound 2.53 µM): 0.505 | relative viability (NCI-H522; first compound 0.08 µM): 0.629 | relative viability (NCI-H522; first compound 0.8 µM): 0.506 | relative viability (NCI-H522; first compound 2.53 µM): 0.591 | relative viability (SW 900; first compound 0.08 µM): 0.667 | relative viability (SW 900; first compound 0.253 µM): 0.511 | relative viability (SW 900; first compound 0.8 µM): 0.439 | relative viability (SW 900; first compound 2.53 µM): 0.415

O=c1[nH]c2ccccc2n1C1CCN(CCCC(c2ccc(F)cc2)c2ccc(F)cc2)CC1 [Pimozide] + N=C(N)NC(=N)NCCc1ccccc1 [Phenformin] (partner 250 µM)
relative viability (A549; first compound 0.08 µM): 0.154 | relative viability (A549; first compound 0.253 µM): 0.171 | relative viability (A549; first compound 0.8 µM): 0.152 | relative viability (A549; first compound 2.53 µM): 0.156 | relative viability (A549; first compound 8 µM): 0.173 | relative viability (NCI-H1563; first compound 0.08 µM): 0.721 | relative viability (NCI-H1563; first compound 0.253 µM): 0.771 | relative viability (NCI-H1563; first compound 0.8 µM): 0.668 | relative viability (NCI-H1563; first compound 2.53 µM): 0.663 | relative viability (NCI-H1563; first compound 8 µM): 0.64 | relative viability (NCI-H1623; first compound 0.253 µM): 0.575 | relative viability (NCI-H1623; first compound 0.8 µM): 0.57 | relative viability (NCI-H1623; first compound 2.53 µM): 0.617 | relative viability (NCI-H1623; first compound 8 µM): 0.629 | relative viability (NCI-H2342; first compound 0.08 µM): 0.655 | relative viability (NCI-H2342; first compound 0.253 µM): 0.543 | relative viability (NCI-H2342; first compound 0.8 µM): 0.555 | relative viability (NCI-H2342; first compound 2.53 µM): 0.536 | relative viability (NCI-H2342; first compound 8 µM): 0.639 | relative viability (NCI-H522; first compound 0.08 µM): 0.569 | relative viability (NCI-H522; first compound 0.253 µM): 0.655 | relative viability (NCI-H522; first compound 0.8 µM): 0.628 | relative viability (NCI-H522; first compound 2.53 µM): 0.804 | relative viability (NCI-H522; first compound 8 µM): 0.671 | relative viability (SW 900; first compound 0.08 µM): 0.574 | relative viability (SW 900; first compound 0.253 µM): 0.685 | relative viability (SW 900; first compound 0.8 µM): 0.375 | relative viability (SW 900; first compound 2.53 µM): 0.552 | relative viability (SW 900; first compound 8 µM): 0.516

O=C(O)CCCCC(CCSCc1ccccc1)SCc1ccccc1 (stereo not given) [CPI-613] + COc1cccc2cc(-c3nc([C@H]4CC[C@H](C(=O)O)CC4)n4ncnc(N)c34)[nH]c12 [OSI-027] (partner 0.5 µM)
relative viability (NCI-H1563; first compound 5 µM): 0.76 | relative viability (NCI-H1563; first compound 15.81 µM): 0.652 | relative viability (NCI-H1563; first compound 50 µM): 0.814 | relative viability (NCI-H1563; first compound 158.11 µM): 0.52 | relative viability (NCI-H1563; first compound 500 µM): 0.223 | relative viability (NCI-H1623; first compound 5 µM): 0.431 | relative viability (NCI-H1623; first compound 15.81 µM): 0.436 | relative viability (NCI-H1623; first compound 50 µM): 0.438 | relative viability (NCI-H1623; first compound 158.11 µM): 0.368 | relative viability (NCI-H1623; first compound 500 µM): 0.408 | relative viability (NCI-H1648; first compound 5 µM): 0.273 | relative viability (NCI-H1648; first compound 15.81 µM): 0.241 | relative viability (NCI-H1648; first compound 50 µM): 0.22 | relative viability (NCI-H1648; first compound 500 µM): 0.203 | relative viability (NCI-H2342; first compound 5 µM): 0.568 | relative viability (NCI-H2342; first compound 15.81 µM): 0.572 | relative viability (NCI-H2342; first compound 50 µM): 0.643 | relative viability (NCI-H2342; first compound 158.11 µM): 0.552 | relative viability (NCI-H2342; first compound 500 µM): 0.643 | relative viability (NCI-H522; first compound 5 µM): 0.706 | relative viability (NCI-H522; first compound 15.81 µM): 0.747 | relative viability (NCI-H522; first compound 50 µM): 0.7 | relative viability (NCI-H522; first compound 158.11 µM): 0.612 | relative viability (NCI-H522; first compound 500 µM): 0.467 | relative viability (SW 900; first compound 5 µM): 0.44 | relative viability (SW 900; first compound 15.81 µM): 0.547 | relative viability (SW 900; first compound 50 µM): 0.65 | relative viability (SW 900; first compound 158.11 µM): 0.245 | relative viability (SW 900; first compound 500 µM): 0.0283

Cc1cnc(-c2cnc(NCCNc3ccc(C#N)cn3)nc2-c2ccc(Cl)cc2Cl)[nH]1 + N=C(N)NC(=N)NCCc1ccccc1 [Phenformin] (partner 250 µM)
relative viability (A549; first compound 0.08 µM): 0.168 | relative viability (A549; first compound 0.253 µM): 0.154 | relative viability (A549; first compound 0.8 µM): 0.151 | relative viability (A549; first compound 2.53 µM): 0.154 | relative viability (NCI-H1563; first compound 0.08 µM): 0.649 | relative viability (NCI-H1563; first compound 0.253 µM): 0.647 | relative viability (NCI-H1563; first compound 0.8 µM): 0.636 | relative viability (NCI-H1563; first compound 2.53 µM): 0.635 | relative viability (NCI-H1623; first compound 0.08 µM): 0.527 | relative viability (NCI-H1623; first compound 0.253 µM): 0.503 | relative viability (NCI-H1623; first compound 0.8 µM): 0.581 | relative viability (NCI-H1623; first compound 2.53 µM): 0.589 | relative viability (NCI-H2342; first compound 0.08 µM): 0.622 | relative viability (NCI-H2342; first compound 0.8 µM): 0.635 | relative viability (NCI-H2342; first compound 2.53 µM): 0.577 | relative viability (NCI-H522; first compound 0.08 µM): 0.639 | relative viability (NCI-H522; first compound 0.253 µM): 0.707 | relative viability (NCI-H522; first compound 0.8 µM): 0.65 | relative viability (NCI-H522; first compound 2.53 µM): 0.666 | relative viability (SW 900; first compound 0.08 µM): 0.771 | relative viability (SW 900; first compound 0.253 µM): 0.588 | relative viability (SW 900; first compound 0.8 µM): 0.644 | relative viability (SW 900; first compound 2.53 µM): 0.391
